Where a name gives a salt, the structure may show the parent alone.
Tested on: Demodex
Assay: Acaricidal experiment: in vitro culture of Demodex with compound solutions, time to death of mites
Conditions: 50 μl, 20° C., 96% humidity
Method: In this study, Demodex was collected from patients diagnosed with ocular Demodex infection. Those meeting the inclusion criteria would be enrolled after an informed conversation and signing an informed consent form.
Demodex detection was performed according to the conventional eyelash microscopic examination method. 3 eyelashes were extracted from each eyelid, and a total of 12 eyelashes were extracted. The extracted eyelashes were immediately placed on a glass slide, and one piece of each three eyelashes was placed under an ordinary light microscope for observation. Demodex at all stages were counted and classified according to morphology (specific criteria were: Demodex brevis at a head-to-body ratio of 1:1 and Demodex folliculorum at a head-to-body ratio of 1:3 to 1:4). Only adults that were fully exposed to the field of view were taken as subjects (larvae and eggs were not considered as subjects since they were more fragile in early life).
Based on the above detection of Demodex, 50 μl of different solutions were added to each slide, and the survival of the worms was observed every 1 hour. The death was judged by observing whether the worms were active (body, limbs, or the like) under a microscope. Two skilled Demodex-related experimenters observed and judged separately during the experiment. If the judgment results were different, the third skilled experimenter was asked to make an independent judgment. The culture in vitro was performed in a climate chamber at 20° C. and 96% humidity. Slides were transported in a humid chamber under observation and the solution was added appropriately to ensure high humidity before vacuoles appeared on solution evaporation.

Molecule	Average survival time of mites (compound 10 mg/mL in 0.9% NaCl) [h]	further results
COc1cc(N)c(Cl)cc1C(=O)NC1CCN(CCCOc2ccc(F)cc2)CC1OC (stereo not drawn) [Cisapride]	72	
CN/C(=N/CCSCc1nc[nH]c1C)NC#N [Cimetidine]	53	
COC(=O)[C@H](c1ccccc1Cl)N1CCc2sccc2C1 [Clopidogrel Bisulfate]	23	
CN[C@H]1CC[C@@H](c2ccc(Cl)c(Cl)c2)c2ccccc21 [Sertraline HCl]	2.50 ± 1.37	Average survival time of mites (compound 1 mg/mL in 0.9% NaCl): 9.07 ± 6.72 h
Fc1ccc([C@@H]2CCNC[C@H]2COc2ccc3c(c2)OCO3)cc1 [Paroxetine]		Average survival time of mites (compound 1 mg/mL in 0.9% NaCl): 2.44 ± 2.04 h
CC12CC3CC(C)(C1)CC(N)(C3)C2 [Memantine HCl]	17	
C[C@@H]1CC[C@H]2C(C)(C)[C@H]3C[C@@]12CC[C@@]3(C)O [Cedrol]	<20.04 ± 1.84	
N[C@@H]1C[C@H]1c1ccccc1 [Tranylcypromine HCl]	2.89 ± 1.08	Average survival time of mites (compound 1 mg/mL in 0.9% NaCl): 7.44 ± 6.07 h; Average survival time of mites (compound 3 mg/mL in 0.9% NaCl): 5.66 ± 0.91 h; Average survival time of mites (compound 30 mg/mL in 0.9% NaCl): 2.24 ± 1.32 h
CC(C)(O)c1ccccc1CC[C@@H](SCC1(CC(=O)O)CC1)c1cccc(/C=C/c2ccc3ccc(Cl)cc3n2)c1 [Montelukast Sodium]	5	
Cc1ccccc1C(OCCN(C)C)c1ccccc1 (stereo not drawn) [Orphenadrine Citrate]	4.35 ± 2.05	Average survival time of mites (compound 1 mg/mL in 0.9% NaCl): ~7.09 ± 1.44 h
CC(=O)N1CCN(c2ccc(OCC3COC(Cn4ccnc4)(c4ccc(Cl)cc4Cl)O3)cc2)CC1 (stereo not drawn) [Ketoconazole]	97	
C=C1CC[C@@]23C[C@@H]1C(C)(C)[C@@H]2CC[C@H]3C [β-cedrene]	42.57 ± 8.89	
CCC(C)n1ncn(-c2ccc(N3CCN(c4ccc(OCC5COC(Cn6cncn6)(c6ccc(Cl)cc6Cl)O5)cc4)CC3)cc2)c1=O (stereo not drawn) [Itraconazole]	96	
S=P(N1CC1)(N1CC1)N1CC1 [Thiotepa]	22	
C[C@@H](c1ncncc1F)[C@](O)(Cn1cncn1)c1ccc(F)cc1F [Voriconazole]	72	
Cc1cc(O)c(C(=O)CCC(C)C)c(=O)o1 [Pogostone]	1.90 ± 1.06	
alpha-bisabolol	7.60 ± 2.60	
COc1c2occc2cc2ccc(=O)oc12 [Methoxsalen]	18	
N#Cc1ccc(C(c2ccc(C#N)cc2)n2cncn2)cc1 [Letrozole]	72	
COc1cc(/C=C/C(=O)CC(=O)/C=C/c2ccc(O)c(OC)c2)ccc1O [Curcumin]	45	
CCc1ccc(C)c2ccc(C)c-2c1 [Chamazulene]	11.49 ± 3.93	
C=C[C@H]1C[N@@]2CC[C@H]1C[C@@H]2[C@@H](O)c1ccnc2ccc(OC)cc12 [Quinidine sulfate]	5	Average survival time of mites (compound 1 mg/mL in 0.9% NaCl): 8.33 ± 4.02 h; Average survival time of mites (compound 5 mg/mL in 0.9% NaCl): 5.35 ± 2.09 h
CCOC(=O)C1=C(C)NC(C)=C(C(=O)OC)C1c1cccc(Cl)c1Cl (stereo not drawn) [Felodipine]	71	
CO[C@@H]1[C@H](N(C)C(=O)c2ccccc2)C[C@H]2O[C@]1(C)n1c3ccccc3c3c4c(c5c6ccccc6n2c5c31)C(=O)NC4 [Midostaurin]	42	
Nc1ccc(S(=O)(=O)Nc2ccnn2-c2ccccc2)cc1 [Sulfaphenazole]	70	
O=c1c(O)c(-c2ccc(O)c(O)c2)oc2cc(O)cc(O)c12 [Quercetin]	4	
Clc1ccccc1C(c1ccccc1)(c1ccccc1)n1ccnc1 [Clotrimazole]		Average survival time of mites (compound 0.3 mg/mL in 0.9% NaCl): ~33.01 h; Average survival time of mites (compound 3 mg/mL in 0.9% NaCl): ~23.63 h
Cc1ncc([N+](=O)[O-])n1CCO [Metronidazole]	67	
